# Laboratory results published in patent US11286258B2, “Nature-inspired anticancer and antibacterial motifs and pharmaceutical composition thereof” (University of Sharjah, priority 2020, dated 2022).
# What was measured:
# [1] = test system: E. coli ATCC BAA2469 (NDM-1 carbapenem-resistant); experiment: MIC broth microdilution, E. coli ATCC BAA2469; assay type: cell-based, Escherichia coli; settings: overnight incubation; for MIC: Escherichia coli, ATCCBAA2469, MDR
# Method: (§1) Antibacterial activity: The compounds were tested for the minimum inhibitory concentrations (MIC), which is the lowest concentration of a chemical required to inhibit visible microbial growth following overnight incubation. MIC values were determined using broth microdilution method according to the Clinical and Laboratory Standards Institute guidelines (CLSI, 2015, M07-A10). Mueller-Hinton broth was used as a culture medium in all the experiments. Exponentially growing bacterial cells were prepared in Mueller-Hinton broth at a concentration of approximately 5×10^5 CFU/mL. Two-fold serial dilutions of the test compound (8 concentrations ranged between 100-0.78 μg/mL) were tested. […] In each experiment, solvent (DMSO) was used as a negative control, un-treated control (composing of bacteria in Mueller-Hinton broth) was used as a growth control, blank (culture media alone) was used as sterility control. The 96-well microplate with the test compounds was incubated overnight at 37° C. Turbidity in wells indicated bacterial growth.
# (§2) The compounds were tested on six MDR Gram-positive bacteria including three clinical isolates of methicillin-resistant Staphylococcus aureus (MRSA-1, MRSA-2 and MRSA-3) and three reference MRSA strains (ATCC33591, ATCC33592 and ATCC700699). They were also tested on three MDR Gram-negative bacteria including New Delhi metallo-beta-lactamase (NDM-1) positive, carbapenem-resistant E. coli (ATCC BAA2469), extended-spectrum beta-lactamase (ESBL) producing, colistin-resistant E. coli (CDC-AR-0346) and carbapenem-resistant Acinetobacter baumannii (ATCC BAA1605), in addition to two non-MDR bacteria from the same species, namely E. coli (ATCC 25922) Acinetobacter baumannii (ATCC 19606).
# [2] = test system: MRSA-2 (clinical isolate); experiment: MIC broth microdilution, MRSA-2; assay type: cell-based, Staphylococcus aureus; settings: Staphylococcus aureus, MRSA; overnight incubation, Mueller-Hinton broth; read-out: MIC MRSA-2 (clinical isolate)
# Method: as §1, §2
# [3] = test system: MRSA-1 (clinical isolate); experiment: MIC broth microdilution, MRSA-1; assay type: cell-based, Staphylococcus aureus; settings: Staphylococcus aureus, MRSA; overnight incubation, Mueller-Hinton broth; read-out: MIC MRSA-1 (clinical isolate)
# Method: as §1, §2
# MRSA-ATCC33591 = experiment: MIC broth microdilution, MRSA ATCC33591; assay type: cell-based, Staphylococcus aureus; settings: Staphylococcus aureus; overnight incubation, Mueller-Hinton broth; read-out: MIC MRSA-ATCC33591
# Method: as §1, §2
# 6 MRSA strains = experiment: MIC, panel of 6 MRSA strains; assay type: cell-based; settings: Staphylococcus aureus, across the panel of tested Gram-positive strains, read-out: MIC against all the 6 MRSA strains
# Method: as §1, §2
# [4] = test system: E. coli CDC-AR-0346 (ESBL, colistin resistant); experiment: MIC broth microdilution, E. coli CDC-AR-0346; assay type: cell-based, Escherichia coli; settings: for MIC: Escherichia coli, MDR, overnight incubation
# Method: as §1, §2
# [5] = test system: MRSA-3 (clinical isolate); experiment: MIC broth microdilution, MRSA-3; assay type: cell-based, Staphylococcus aureus; settings: Staphylococcus aureus, MRSA; overnight incubation, Mueller-Hinton broth; read-out: MIC MRSA-3 (clinical isolate)
# Method: as §1, §2
# [6] = test system: Acinetobacter baumannii ATCC 19606; experiment: MIC broth microdilution, A. baumannii ATCC 19606; assay type: cell-based; settings: Acinetobacter baumannii, ATCC19606; not MDR; overnight incubation
# Method: as §1, §2
# [7] = test system: Acinetobacter baumannii ATCC BAA1605 (carbapenem-resistant); experiment: MIC broth microdilution, A. baumannii ATCC BAA1605; assay type: cell-based; settings: for MIC: Acinetobacter baumannii, ATCCBAA1605, MDR, overnight incubation
# Method: as §1, §2
# E. coli ATCC25922 = experiment: MIC broth microdilution, E. coli ATCC25922; assay type: cell-based, Escherichia coli; settings: Escherichia coli, ATCC25922; not MDR; overnight incubation
# Method: as §1, §2
# MRSA-ATCC700699 (VISA) = experiment: MIC broth microdilution, MRSA ATCC700699 (VISA); assay type: cell-based, Staphylococcus aureus; settings: for MIC: Staphylococcus aureus, strain intermediately resistant to vancomycin, overnight incubation, read-out: MIC MRSA-ATCC700699 (VISA)
# Method: as §1, §2
# MRSA-ATCC33592 = experiment: MIC broth microdilution, MRSA ATCC33592; assay type: cell-based, Staphylococcus aureus; settings: Staphylococcus aureus; overnight incubation, Mueller-Hinton broth; read-out: MIC MRSA-ATCC33592
# Method: as §1, §2
# MDR E. coli strains = experiment: MIC, both MDR E. coli strains; assay type: cell-based; settings: Escherichia coli, ATCCBAA2469; across ATCC BAA2469 and CDC-AR-0346
# Method: as §1
# The compounds were tested on six MDR Gram-positive bacteria including three clinical isolates of methicillin-resistant Staphylococcus aureus (MRSA-1, MRSA-2 and MRSA-3) and three reference MRSA strains (ATCC33591, ATCC33592 and ATCC700699). […]
# HEP3B = experiment: MTT cell viability, HEP3B; assay type: cell-based; settings: Homo sapiens, liver cancer, 48 h of drug treatment, average of three experiments
# Text: (§3) Cell culture: In this study five different cancer cell lines were used, human lung carcinoma (A549), human breast adenoma (MCF-7), Cervical carcinoma (Hela), hepatocellular carcinoma (Hep3B), and colorectal adenocarcinoma (HCT-116). These cells were obtained from the European Collection of Cell Cultures (ECACC, UK). Hep3B cells were maintained in Dulbecco's Modified Eagle Medium (DMEM: Sigma-Aldrich), and the four other cell lines were maintained in Roswell Park Memorial Institute medium (RPMI, Sigma-Aldrich, St. Louis, Mo., USA), which was supplemented with 10% fetal bovine serum (FBS, Sigma-Aldrich) and 1% penicillin/streptomycin (Sigma-Aldrich). Cells were incubated all the time at 37° C. in a humidified atmosphere of 5% CO2. Cell viability studies: Cell viability was assessed using the MTT assay as described before. In brief, all cancer cell lines were seeded at a density of 4×10^4/well in 96 well flat-bottom plates. After 24 h from seeding, cells were treated with the synthesized compounds and left for an incubation period of 48 h. Upon reaching the indicated time point, the media was removed and replaced with 200 μL fresh media containing 0.5 mg/mL of MTT tetrazolium dye (Sigma-Aldrich). Cells were then incubated with MTT solution for 2 h at 37° C. The resultant formazan crystals were dissolved in 200 μl/well of DMSO and absorbance was measured at 570 nm using a microplate reader (Thermo Scientific).
# [8] = test system: normal epithelial cells (HMEC); experiment: Cell viability, normal epithelial cells; assay type: cell-based; settings: Homo sapiens, 48 h of drug treatment, average of three experiments
# Method: (§4) Cell viability studies: Cell viability was assessed using the MTT assay as described before. In brief, all cancer cell lines were seeded at a density of 4×10^4/well in 96 well flat-bottom plates. After 24 h from seeding, cells were treated with the synthesized compounds and left for an incubation period of 48 h. Upon reaching the indicated time point, the media was removed and replaced with 200 μL fresh media containing 0.5 mg/mL of MTT tetrazolium dye (Sigma-Aldrich). Cells were then incubated with MTT solution for 2 h at 37° C. The resultant formazan crystals were dissolved in 200 μl/well of DMSO and absorbance was measured at 570 nm using a microplate reader (Thermo Scientific).
# HELA = experiment: MTT cell viability, HELA; assay type: cell-based; settings: Homo sapiens, cervical cancer, 48 h of drug treatment, average of three experiments
# Text: as §3
# SKBR3 = experiment: MTT cell viability, SKBR3; assay type: cell-based; settings: Homo sapiens, SK-BR-3; breast cancer; 48 h of drug treatment; average of three experiments
# Method: as §4
# JIMT1 = experiment: MTT cell viability, JIMT1; assay type: cell-based; settings: Homo sapiens, JIMT-1; breast cancer; 48 h of drug treatment; average of three experiments
# Method: as §4
# MDA-MB-468 = experiment: MTT cell viability, MDA-MB-468; assay type: cell-based; settings: Homo sapiens, breast cancer, 48 h of drug treatment, average of three experiments
# Method: as §4
# A549 = experiment: MTT cell viability, A549; assay type: cell-based; settings: Homo sapiens, lung cancer, 48 h of drug treatment, average of three experiments
# Text: as §3
# MDA-MB-231 = experiment: MTT cell viability, MDA-MB-231; assay type: cell-based; settings: Homo sapiens, breast cancer, 48 h of drug treatment, average of three experiments
# Method: as §4
# SKOV3 = experiment: MTT cell viability, SKOV3; assay type: cell-based; settings: Homo sapiens, SK-OV-3; 48 h of drug treatment; average of three experiments
# Method: as §4
# MCF-7 = experiment: MTT cell viability, MCF-7; assay type: cell-based; settings: Homo sapiens, MCF7; breast cancer; 48 h of drug treatment; average of three experiments
# Text: as §3
# AGS = experiment: MTT cell viability, AGS; assay type: cell-based; settings: Homo sapiens, stomach cancer, 48 h of drug treatment, average of three experiments
# Method: as §4
# HCT-116 = experiment: MTT cell viability, HCT-116; assay type: cell-based; settings: Homo sapiens, colon cancer, 48 h of drug treatment, average of three experiments
# Text: as §3
# Hela cells = experiment: Western blot, autophagy- and iron metabolism-related proteins, Hela; assay type: cell-based, human
# Method: Western Blotting (autophagy- and iron metabolism-related proteins): Cells were grown in DMEM supplemented with 10% FBS and 1×PEST (Penicillin and streptomycin antibiotics) at 37° C. in incubator having humidified atmosphere with 5% CO2. The media were removed and cells were washed twice with 1× cold PBS. Cells lysis was performed with RIPA lysis buffer containing (150 mM sodium chloride, 1.0% NP-40, 0.1% SDS, 50 mM Tris pH 8.0, 0.5% sodium deoxycholate supplemented with protease inhibitors cocktail). Cells were kept on icebox during the lysis process. Cold lysis buffer was added to each well directly and then cells were scraped and collected in 1.5 ml Eppendorf tube. Cell lysis was kept on icebox for 20 minutes and then centrifuged at 4° C. for 10 minutes. The supernatant was collected and the pellet was discarded. After, protein quantification, samples were boiled in 5× loading buffer at 95° C. for 5 minutes. After completion of the gel running and transfer process, the membrane was stained with ponceau solution. After that, the membrane was washed with 1×TBST and then blocked in 5% non-fat dry milk for 1 hr at room temperature. The membrane was washed 3 times with 1×TBST and then incubated with indicated primary antibodies at 4° C. overnight. Primary antibodies were removed; the membrane was washed 3 times with 1×TBST and then incubated with secondary antibodies for 2 h at room temperature. Secondary antibodies were diluted in 5% non-fat dry milk in 1× TB ST. After removal of the secondary antibody, the membrane was washed 3 times with 1×TBST. The membrane was incubated in ECL solution and the signal was developed using Gel Doc system from Biorad.
SMILES,MIC [1],MIC [2],MIC [3],MIC (MRSA-ATCC33591),MIC (6 MRSA strains),MIC [4],MIC [5],MIC [6],MIC [7],MIC (E. coli ATCC25922),MIC (MRSA-ATCC700699 (VISA)),MIC (MRSA-ATCC33592),MIC (MDR E. coli strains),IC50 (HEP3B),IC50 (HELA),IC50 (A549),IC50 (MCF-7),IC50 (HCT-116),further results
"NCC[C@H](O)C(=O)N[C@@H]1C[C@H](N)[C@@H](O[C@H]2O[C@H](CN)[C@@H](O)[C@H](O)[C@H]2O)[C@H](O)[C@H]1O[C@H]1O[C@H](CO)[C@@H](O)[C@H](N)[C@H]1O [Amikacin, reference compound]",> 1000 µg/mL,8 µg/mL,16 µg/mL,50 µg/mL,2 to 100 µg/mL,> 1000 µg/mL,2 µg/mL,10 µg/mL,1.25 µg/mL,2.5 µg/mL,100 µg/mL,50 µg/mL,> 1000 µg/mL,,,,,,
"O=C(O)c1cn(C2CC2)c2cc(N3CCNCC3)c(F)cc2c1=O [Ciprofloxacin, reference compound]",100 µg/mL,,,0.3 µg/mL,0.3 to 32 µg/mL,,,0.625 µg/mL,50 µg/mL,< 0.02 µg/mL,,0.3 µg/mL,16 to 100 µg/mL,,,,,,
O=[N+]([O-])c1ccc(N/N=C2\C=C[C@@]3(CC2)CC[C@@H]2NCCc4c2n3c2ccccc42)cc1 [Compound 1d],,3.12 µg/mL,3.12 µg/mL,3.12 µg/mL,,,3.12 µg/mL,,,,3.12 µg/mL,3.12 µg/mL,,2.32 ± 0.16 µM,3.14 ± 0.04 µM,5.22 ± 0.03 µM,3.09 ± 0.04 µM,2.49 ± 0.02 µM,IC50 [8]: 42.04 ± 0.08 µM; IC50 (SKBR3): 3.93 ± 0.16 µM; IC50 (JIMT1): 4 ± 0.1 µM; IC50 (MDA-MB-468): 3.06 ± 0.17 µM; IC50 (MDA-MB-231): 4.22 ± 0.1 µM; IC50 (SKOV3): 6.52 ± 0.2 µM; IC50 (AGS): 5.37 ± 0.17 µM; Expression and metabolism of autophagy marker LC3B1/II (Hela cells): upregulate; Expression of DNA damage marker pH2AX (Hela cells): induce
Fc1ccc2c3c4n(c2c1)[C@@]1(C=C/C(=N\Nc2ccc(C(F)(F)F)cc2)CC1)CC[C@@H]4NCC3 [Compound 1g],6.25 to 12.5 µg/mL,1.56 µg/mL,1.56 µg/mL,1.56 µg/mL,1.56 µg/mL,12.5 µg/mL,1.56 µg/mL,6.25 µg/mL,6.25 µg/mL,6.25 µg/mL,1.56 µg/mL,1.56 µg/mL,,3.597 ± 0.03 µM,4.625 ± 0.04 µM,7.44 ± 0.04 µM,5.34 ± 1.8 µM,3.02 ± 1.2 µM,"MIC E. coli ATCC BAA2469 (NDM-1 carbapenem-resistant) ([1]; MDR): 6.25 µg/mL; MIC fold higher than that of colistin ([4]; E. coli CDC-AR-0346, colistin 6.25 μg/mL): 2 fold; MIC fold below that of meropenem ([7]; Acinetobacter baumannii ATCC BAA1605, meropenem 12.5 μg/mL): 2 fold; MIC times less than the MIC of vancomycin (MRSA-ATCC700699 (VISA); VISA strain ATCC 700699, vancomycin 8 μg/mL): ~5 times"
